Data taken from patent US8809333B2, “Imidazole, pyrazole, and triazole derivatives useful as antibacterial agents” (Pfizer Inc., priority 2011, dated 2014).
Values after ≈ are worked out from the molar mass of the structure shown. Where two headings read alike, the source gives them in different places.

What was measured:
[1] = biological target: T1, Pseudomonas aeruginosa LpxC enzyme (Pseudomonas aeruginosa, UniProt P47205); assay: IC50 assay, LpxC enzyme from P. aeruginosa (BioTrove RapidFire mass spectrometry); assay type: biochemical
T1 construct: made in house; host or cells: E. coli
T1 sequence (P47205 1-303): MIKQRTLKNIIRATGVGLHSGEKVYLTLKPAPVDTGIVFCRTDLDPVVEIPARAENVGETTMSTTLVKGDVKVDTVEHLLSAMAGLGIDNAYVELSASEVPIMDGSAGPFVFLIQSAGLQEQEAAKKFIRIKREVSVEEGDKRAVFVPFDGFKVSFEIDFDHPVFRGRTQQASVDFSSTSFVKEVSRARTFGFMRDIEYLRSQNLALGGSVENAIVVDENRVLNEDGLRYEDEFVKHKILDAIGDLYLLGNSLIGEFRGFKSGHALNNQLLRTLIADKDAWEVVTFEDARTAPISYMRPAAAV
Method in brief: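 P. aeruginosa LpxC reaction run 1 hour, stopped with 1 N HCl, and substrate-to-product conversion quantified by RapidFire mass spectrometry. IC50 calculated from percent conversion using a no-enzyme control.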

[2] = tested on: Acinetobacter baumannii/haemolyticus: Multidrug-resistant clinical isolate (AB-3167); assay: MIC determination (CLSI), AB-3167; assay type: cell-based; conditions: for MIC: read-out: AB-3167 (MIC)
Method in brief: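 Broth dilution MIC per CLSI M7-A8, 2-fold concentration steps, overnight incubation, visual read of lowest concentration inhibiting growth versus drug-free control. Tested in duplicate; lower value reported if within 2-fold, otherwise repeated; QC organisms and reference drugs required within range.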

[3] = tested on: Escherichia coli EC-1: VOGEL, mouse virulent; assay: MIC determination (CLSI), EC-1; assay type: cell-based; conditions: for MIC: Escherichia coli, read-out: EC-1 (MIC)
Method in brief: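 Broth dilution MIC per CLSI M7-A8, with 2-fold compound dilutions incubated overnight with a standard inoculum. MIC is the lowest concentration visibly inhibiting growth versus drug-free control; tested in duplicate, reporting the lower value when within 2-fold, with QC organisms and reference compounds required in range.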

[4] = tested on: Klebsiella pneumoniae: Ciprofloxacin-resistant isolate, expresses ESBL, clinical isolate (KP-3700); assay: MIC determination (CLSI), KP-3700; assay type: cell-based; conditions: overnight incubation, lower of duplicate values
Method in brief: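 Broth dilution MIC per CLSI M7-A8 against the ciprofloxacin-resistant, ESBL-expressing clinical isolate, 2-fold concentration steps, overnight incubation, visual read of lowest growth-inhibiting concentration. Tested in duplicate; lower value reported when within 2-fold; control organisms and reference compounds required within range.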

[5] = tested on: Pseudomonas aeruginosa UI-18: Wild-type (PA-7); assay: MIC determination (CLSI), PA-7; assay type: cell-based; conditions: for MIC: read-out: PA-7 (MIC)
Method in brief: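 Broth dilution MIC per CLSI M7-A8, using 2-fold compound dilutions incubated overnight; MIC is the lowest concentration with no visible growth versus the drug-free control. Run in duplicate, lower value reported when within 2-fold. Control organisms and reference compounds were included for QC.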

[6] = P. aeruginosa LpxC enzyme 0.1 nM, 25° C., 1 hour, pH 8.0, read-out: PA: IC50
[7] = Acinetobacter baumannii/haemolyticus multidrug-resistant clinical isolate, overnight incubation, lower of duplicate values
[8] = Pseudomonas aeruginosa UI-18 wild-type, overnight incubation, lower of duplicate values

Compound	IC50 [1, 6]	MIC [2, 7]	MIC [3]	KP-3700 (MIC) [4]	MIC [5, 8]	IC50 [1]	MIC ([2]; Acinetobacter baumannii)	MIC ([5]; Pseudomonas aeruginosa)	AB-3167 (MIC) [2, 7]	EC-1 (MIC) ([3]; Escherichia coli EC-1 VOGEL, mouse virulent, overnight incubation, lower of duplicate values)	PA-7 (MIC) [5, 8]
CC(CCn1cc(-c2cccc(C#N)c2)cn1)(C(=O)NO)S(C)(=O)=O (stereo not drawn) [Example 48, 4-[4-(3-cyanophenyl)-1H-pyrazol-1-yl]-N-hydroxy-2-methyl-2-(methylsulfonyl)butanamide]	29.3 nM	> 64 µg/mL	> 64 µg/mL	>64.0 µg/mL	64 µg/mL (≈ 177 µM)						
C[C@@](CCn1cc(-c2cnccn2)cn1)(C(=O)NO)S(C)(=O)=O [Example 8, (2R)—N-hydroxy-2-methyl-2-(methylsulfonyl)-4-[4-(pyrazin-2-yl)-1H-pyrazol-1-yl]butanamide]	> 100 nM	> 64 µg/mL	> 64 µg/mL	>64.0 µg/mL	> 64 µg/mL						
CC(CCn1cc(COc2ccc(C(F)(F)F)cc2)nn1)(C(=O)NO)S(C)(=O)=O (stereo not drawn) [Example 33, N-hydroxy-2-methyl-2-(methylsulfonyl)-4-(4-{[4-(trifluoromethyl)phenoxy]methyl}-1H-1,2,3-triazol-1-yl)butanamide]	9.6 nM	> 64 µg/mL	64 µg/mL (≈ 147 µM)	>64.0 µg/mL	32 µg/mL (≈ 73.3 µM)						
C[C@@](CCn1cc(-c2ccccc2)cn1)(C(=O)NO)S(C)(=O)=O [Example 6, (2R)—N-hydroxy-2-methyl-2-(methylsulfonyl)-4-(4-phenyl-1H-pyrazol-1-yl)butanamide]		> 64 µg/mL	16 µg/mL (≈ 47.4 µM)	64 µg/mL	1 µg/mL (≈ 2.96 µM)	1.61 nM					
Cc1cc(-c2cnn(CCC(C)(C(=O)NO)S(C)(=O)=O)c2)ccc1O (stereo not drawn) [Example 50, N-hydroxy-4-[4-(4-hydroxy-3-methylphenyl)-1H-pyrazol-1-yl]-2-methyl-2-(methylsulfonyl)butanamide]	44.4 nM	> 64 µg/mL	> 64 µg/mL	>64.0 µg/mL	> 64 µg/mL						
Cc1ccc(C)c(OCc2cn(CCC(C)(C(=O)NO)S(C)(=O)=O)nn2)c1 (stereo not drawn) [Example 39, 4-{4-[(2,5-dimethylphenoxy)methyl]-1H-1,2,3-triazol-1-yl}-N-hydroxy-2-methyl-2-(methylsulfonyl)butanamide]	51.3 nM	> 64 µg/mL	> 64 µg/mL	>64.0 µg/mL	> 64 µg/mL						
CC(CCn1cc(-c2ccccc2C#N)cn1)(C(=O)NO)S(C)(=O)=O (stereo not drawn) [Example 46, 4-[4-(2-cyanophenyl)-1H-pyrazol-1-yl]-N-hydroxy-2-methyl-2-(methylsulfonyl)butanamide]	72.5 nM	> 64 µg/mL	4 µg/mL (≈ 11 µM)	>64.0 µg/mL	32 µg/mL (≈ 88.3 µM)						
CC(CCn1cc(-c2ccc3c(c2)CCO3)cn1)(C(=O)NO)S(C)(=O)=O (stereo not drawn) [Example 58, 4-[4-(2,3-dihydro-1-benzofuran-5-yl)-1H-pyrazol-1-yl]-N-hydroxy-2-methyl-2-(methylsulfonyl)butanamide]	1.17 nM	> 64 µg/mL	> 64 µg/mL	>64.0 µg/mL	4 µg/mL (≈ 10.5 µM)						
CC(CCn1cc(-c2ccc(C(F)(F)F)nc2)cn1)(C(=O)NO)S(C)(=O)=O (stereo not drawn) [Example 77, N-hydroxy-2-methyl-2-(methylsulfonyl)-4-{4-[6-(trifluoromethyl)pyridin-3-yl]-1H-pyrazol-1-yl}butanamide]	19.5 nM	> 64 µg/mL	> 64 µg/mL	>64.0 µg/mL	64 µg/mL (≈ 157 µM)						
CC(CCn1cc(-c2ccc3c(c2)C(=O)CC3)cn1)(C(=O)NO)S(C)(=O)=O (stereo not drawn) [Example 61, N-hydroxy-2-methyl-2-(methylsulfonyl)-4-[4-(3-oxo-2,3-dihydro-1H-inden-5-yl)-1H-pyrazol-1-yl]butanamide]	38.6 nM	> 64 µg/mL	> 64 µg/mL	>64.0 µg/mL	> 64 µg/mL						
Cc1nc2ccc(-c3cnn(CCC(C)(C(=O)NO)S(C)(=O)=O)c3)cc2s1 (stereo not drawn) [Example 79, N-hydroxy-2-methyl-4-[4-(2-methyl-1,3-benzothiazol-6-yl)-1H-pyrazol-1-yl]-2-(methylsulfonyl)butanamide]	6.22 nM	> 64 µg/mL	64 µg/mL (≈ 157 µM)	>64.0 µg/mL	16 µg/mL (≈ 39.2 µM)						
C[C@@](CCn1cc(-c2ccc(Cl)c(Cl)c2)nn1)(C(=O)NO)S(C)(=O)=O [Example 21, (2R)-4-[4-(3,4-dichlorophenyl)-1H-1,2,3-triazol-1-yl]-N-hydroxy-2-methyl-2-(methylsulfonyl)butanamide]			16 µg/mL (≈ 39.3 µM)	32 µg/mL		1.67 nM	> 64 µg/mL	2 µg/mL (≈ 4.91 µM)			
CC(CCn1cc(-c2ccccc2F)cn1)(C(=O)NO)S(C)(=O)=O (stereo not drawn) [Example 45, 4-[4-(2-fluorophenyl)-1H-pyrazol-1-yl]-N-hydroxy-2-methyl-2-(methylsulfonyl)butanamide]	2.5 nM	> 64 µg/mL	16 µg/mL (≈ 45 µM)	64 µg/mL	2 µg/mL (≈ 5.63 µM)						
Cc1ccc(-c2cnn(CCC(C)(C(=O)NO)S(C)(=O)=O)c2)cc1 (stereo not drawn) [Example 41, N-hydroxy-2-methyl-4-[4-(4-methylphenyl)-1H-pyrazol-1-yl]-2-(methylsulfonyl)butanamide]	1.26 nM	> 64 µg/mL	8 µg/mL (≈ 22.8 µM)	64 µg/mL	2 µg/mL (≈ 5.69 µM)						
CC(C)(C)c1cccc(OCc2cn(CCC(C)(C(=O)NO)S(C)(=O)=O)nn2)c1 (stereo not drawn) [Example 35, 4-{4-[(3-t-butylphenoxy)methyl]-1H-1,2,3-triazol-1-yl}-N-hydroxy-2-methyl-2-(methylsulfonyl)butanamide]	24 nM	> 64 µg/mL	> 64 µg/mL	>64.0 µg/mL	> 64 µg/mL						
CC(C)c1ccccc1SCc1cn(CCC(C)(C(=O)NO)S(C)(=O)=O)nn1 (stereo not drawn) [Example 31, N-hydroxy-2-methyl-2-(methylsulfonyl)-4-[4-({[2-(propan-2-yl)phenyl]sulfanyl}methyl)-1H-1,2,3-triazol-1-yl]butanamide]	303 nM	> 64 µg/mL	> 64 µg/mL	>64.0 µg/mL	> 64 µg/mL						
CSc1cccc(OCc2cn(CCC(C)(C(=O)NO)S(C)(=O)=O)nn2)c1 (stereo not drawn) [Example 36, N-hydroxy-2-methyl-4-(4-{[3-(methylsulfanyl)phenoxy]methyl}-1H-1,2,3-triazol-1-yl)-2-(methylsulfonyl)butanamide]	6.39 nM	> 64 µg/mL	> 64 µg/mL	>64.0 µg/mL	32 µg/mL (≈ 77.2 µM)						
(2R)-4-[4-(2-fluoro-4-methoxyphenyl)-1H-1,2,3-triazol-1-yl]-N-hydroxy-2-methyl-2-(methylsulfonyl)butanamide [Example 22]	1.2 nM			32 µg/mL					>64.0 µg/mL	4 µg/mL	2 µg/mL
CC(CCn1cc(-c2ccc3c(c2)CCC3=O)cn1)(C(=O)NO)S(C)(=O)=O (stereo not drawn) [Example 62, N-hydroxy-2-methyl-2-(methylsulfonyl)-4-[4-(1-oxo-2,3-dihydro-1H-inden-5-yl)-1H-pyrazol-1-yl]butanamide]	0.754 nM	> 64 µg/mL	> 64 µg/mL	>64.0 µg/mL	16 µg/mL (≈ 40.9 µM)						
COc1ccc(-c2cn(CC[C@](C)(C(=O)NO)S(C)(=O)=O)nn2)c(Cl)c1 [Example 16, (2R)-4-[4-(2-chloro-4-methoxyphenyl)-1H-1,2,3-triazol-1-yl]-N-hydroxy-2-methyl-2-(methylsulfonyl)butanamide]		> 64 µg/mL	8 µg/mL (≈ 19.9 µM)	32 µg/mL	8 µg/mL (≈ 19.9 µM)	4.71 nM					
CC(CCn1cc(-c2ccc3c(c2)OCCO3)cn1)(C(=O)NO)S(C)(=O)=O (stereo not drawn) [Example 63, 4-[4-(2,3-dihydro-1,4-benzodioxin-6-yl)-1H-pyrazol-1-yl]-N-hydroxy-2-methyl-2-(methylsulfonyl)butanamide]	6.75 nM	> 64 µg/mL	> 64 µg/mL	>64.0 µg/mL	4 µg/mL (≈ 10.1 µM)						
